Several values for one entry are separate records, joined by “and”; a condition that tells them apart may be missing. Equal entries are not always repeated.
Test system: NCI-H196 complex spheroid growth, percent test/control
Experiment: Anticancer human tumor NCI-H196 cell line growth inhibition [AhR];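 further: seven days of drug exposure starting three days after plating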;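 on viability, T/C: 100% = DMSO vehicle control wells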
Settings: for viability, T/C: stronger effect = lower value; active means viability on the fitted dose curve at most 10% of control; inactive means the rest
Summary of the method: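 Agents were dosed in half-log steps down from roughly clinical Cmax, or from 10 microM where Cmax was unknown, alone and with AhR antagonists. Read-out: percent test/control growth of tumor spheroids containing HUVEC and MSC stromal cells.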

[1] = curve of first compound, second compound 0.1 µM
[2] = curve of first compound, second compound 0.316 µM
[3] = curve of first compound, second compound 1 µM
[4] = curve of first compound, second compound 3.16 µM
[5] = curve of first compound, second compound 10 µM
[6] = second compound 0.1 µM, first compound 0.0316 µM
[7] = second compound 0.1 µM, first compound 0.1 µM
[8] = second compound 0.1 µM, first compound 0.316 µM
[9] = second compound 0.1 µM, first compound 1 µM
[10] = second compound 0.1 µM, first compound 3.16 µM
[11] = second compound 0.1 µM, first compound 10 µM
[12] = second compound 0.316 µM, first compound 0.0316 µM
[13] = second compound 0.316 µM, first compound 0.1 µM
[14] = second compound 0.316 µM, first compound 0.316 µM
[15] = second compound 0.316 µM, first compound 1 µM
[16] = second compound 0.316 µM, first compound 3.16 µM
[17] = second compound 0.316 µM, first compound 10 µM
[18] = second compound 1 µM, first compound 0.0316 µM
[19] = second compound 1 µM, first compound 0.1 µM
[20] = second compound 1 µM, first compound 0.316 µM
[21] = second compound 1 µM, first compound 1 µM
[22] = second compound 1 µM, first compound 3.16 µM
[23] = second compound 1 µM, first compound 10 µM
[24] = second compound 3.16 µM, first compound 0.0316 µM
[25] = second compound 3.16 µM, first compound 0.1 µM
[26] = second compound 3.16 µM, first compound 0.316 µM
[27] = second compound 3.16 µM, first compound 1 µM
[28] = second compound 3.16 µM, first compound 3.16 µM
[29] = second compound 3.16 µM, first compound 10 µM
[30] = second compound 10 µM, first compound 0.0316 µM
[31] = second compound 10 µM, first compound 0.1 µM
[32] = second compound 10 µM, first compound 0.316 µM
[33] = second compound 10 µM, first compound 1 µM
[34] = second compound 10 µM, first compound 3.16 µM
[35] = second compound 10 µM, first compound 10 µM

Nc1ccccc1NC(=O)c1ccc(CNC(=O)OCc2cccnc2)cc1 + Cc1ccccc1N=Nc1ccc(NC(=O)c2ccnn2C)c(C)c1
inactive: viability, T/C [6] 88% | viability, T/C [7] 78.3% | viability, T/C [8] 71.9% | viability, T/C [9] 44.8% | viability, T/C [10] 15% | viability, T/C [12] 85% | viability, T/C [13] 83.9% | viability, T/C [14] 73.3% | viability, T/C [15] 44.9% | viability, T/C [16] 18.5% | viability, T/C [18] 85.8% | viability, T/C [19] 89.8% | viability, T/C [20] 74.9% | viability, T/C [21] 48.6% | viability, T/C [22] 20.7% | viability, T/C [24] 91.9% | viability, T/C [25] 80.8% | viability, T/C [26] 70.5% | viability, T/C [27] 44% | viability, T/C [28] 18.5% | viability, T/C [30] 88.8% | viability, T/C [31] 94.7% | viability, T/C [32] 72.7% | viability, T/C [33] 55.2% | viability, T/C [34] 26.5%
856 nM: IC50 [2]
active: viability, T/C [11] 0.96% | viability, T/C [17] 1% | viability, T/C [23] 1.92% | viability, T/C [29] 1.99% | viability, T/C [35] 3.32%
1200 nM: IC50 [5]
765 nM: IC50 [4]
992 nM: IC50 [3]
787 nM: IC50 [1]

O=C(C=Cc1cccc(S(=O)(=O)Nc2ccccc2)c1)NO + CC(CO)NC(=O)c1cc(-c2ccc(Cl)cc2)nn(-c2cnn(C)c2)c1=O
1750 nM: IC50 [4]
inactive: viability, T/C [6] 107% | viability, T/C [7] 92.2% | viability, T/C [8] 91.3% | viability, T/C [9] 72.2% | viability, T/C [10] 21.6% | viability, T/C [12] 109% | viability, T/C [13] 98.1% | viability, T/C [14] 98.9% | viability, T/C [15] 71.2% | viability, T/C [16] 28% | viability, T/C [18] 101% | viability, T/C [19] 99.5% | viability, T/C [20] 102% | viability, T/C [21] 83.7% | viability, T/C [22] 28.5% | viability, T/C [24] 108% | viability, T/C [25] 109% | viability, T/C [26] 102% | viability, T/C [27] 74.1% | viability, T/C [28] 24.3% | viability, T/C [30] 119% | viability, T/C [31] 106% | viability, T/C [32] 99.9% | viability, T/C [33] 75.1% | viability, T/C [34] 26.9%
2020 nM: IC50 [3]
1810 nM: IC50 [5]
active: viability, T/C [11] 1.02% | viability, T/C [17] 0.59% | viability, T/C [23] 0.5% | viability, T/C [29] 0.54% | viability, T/C [35] 0.56%
1770 nM: IC50 [2]
1630 nM: IC50 [1]

Nc1ncn(C2CC(O)C(CO)S2)c(=O)n1 (stereo unspecified)
> 300 nM: IC50 (curve of compound)
inactive: viability, T/C (compound 0.000949 µM) 92.7% and 99.1% and 95.1% | viability, T/C (compound 0.003 µM) 107% and 97.7% and 97.9% | viability, T/C (compound 0.00949 µM) 109% (2×) and 117% | viability, T/C (compound 0.03 µM) 109% and 104% and 105% | viability, T/C (compound 0.0949 µM) 118% and 110% and 107% | viability, T/C (compound 0.3 µM) 119% and 96.8% and 117%

O=C(C=Cn1cnc(-c2cc(C(F)(F)F)cc(C(F)(F)F)c2)n1)NNc1cnccn1
inactive: viability, T/C (compound 0.00949 µM) 73.6% and 72.9% and 69.5% | viability, T/C (compound 0.03 µM) 63% and 56.7% and 62.2%
29.8% and 8.08% and 13.8%: viability, T/C (compound 0.0949 µM)
active: viability, T/C (compound 0.3 µM) 8.48% and 5.65% and 9.96% | viability, T/C (compound 0.949 µM) 8.74% and 6.18% and 8.91% | viability, T/C (compound 3 µM) 6.48% and 6.56% and 8.45%
47.2 nM and 35.2 nM and 40.1 nM: IC50 (curve of compound)

Nc1ncn(C2CC(O)C(CO)O2)c(=O)n1 (stereo unspecified)
> 1000 nM: IC50 (curve of compound)
inactive: viability, T/C (compound 0.00316 µM) 110% and 113% and 104% | viability, T/C (compound 0.01 µM) 96.1% and 116% and 107% | viability, T/C (compound 0.0316 µM) 93.2% and 102% and 110% | viability, T/C (compound 0.1 µM) 97.1% and 113% and 103% | viability, T/C (compound 0.316 µM) 105% and 124% and 93.8% | viability, T/C (compound 1 µM) 116% and 104% and 105%
